Assay results published in US20160106727A1, “COMPOSITION AND METHOD FOR THE TREATMENT OF NEURODEGENERATION” (Wright State University, priority 2011, published 2016).

System: neurogenesis in the subventricular zone of the lateral brain ventricles
Assay: Adult neurogenesis by doublecortin staining after two weeks of daily oral treatment
Assay type: in vivo, male Wistar rats
Settings: for Fold increase in neurogenesis over vehicle control: anterior subventricular zone
[1] = doublecortin staining, two weeks daily oral

Text: Animals, more specifically, male Wistar rats were used to measure differences in neurogenesis in the subventricular zone of the lateral brain ventricles in response to the various drug treatments using doublecortin primary antibody to measure neurogenesis.
The male Wistar rats aged approximately one year old were used, wherein a doublecortin antibody was used to measure neurogenesis with a horseradish peroxidase labeled secondary antibody developed with 3,3′-Diaminobenzidine (DAB).
Wherein, the male Wistar rats were given voluntary oral drug treatments daily for a two week period.
For example, four groups of Wistar rats, n=6 in each, were given a vehicle control or one of three drug compositions which are voluntary orally administered for a period of two weeks, euthanized and the brain dissected for immunohistochemistry.
Specifically, all dissected animal brains were blocked and post fixed for 24 hours in 4% paraformaldehyde in PBS at 5° C. The brains were then put into 30% sucrose in PBS at 5° C. for at least 3 days and then cut on a cryostat into 50 micron coronal sections. The sections were collected into PBS, blocked for one hour with PBS containing 1% Tween and 3% secondary antibody host serum, then reacted with doublecortin primary antibody, 1:500 dilution in blocking solution. […] Free-floating sections were washed with 3 washes of PBS containing 0.1% Tween, then incubated in the dark with secondary antibodies, Cy3-labeled Donkey anti-rabbit IgG, FITC-labeled Donkey anti-sheep IgG; Jackson Immunology, at a 1:100 dilution in blocking solution for 2.5 hours at room temperature or a Vector ABC elite horseradish peroxidase DAB kit was used according to kit instructions, mounting the final washed sections on gel-subbed slides. Sections with fluorescent secondary antibodies were washed three times with PBS containing 0.1% Tween and then the sections were mounted on gel-subbed slides.
ANOVA (analysis of variance) was used for statistical analysis.

`CNCCC(Oc1ccc(C(F)(F)F)cc1)c1ccccc1` (stereo not shown) [fluoxetine] was tested. Which “Fold increase in neurogenesis over vehicle control” value [1] did it give?
Its value is “approximately 10 fold”.

And the “Fold increase in neurogenesis over vehicle control” value (doublecortin staining, two weeks daily oral, listed as Fluoxetine)?
The value was 10 fold.

And the “Neurogenesis compared to vehicle control (in words)” value [1]?
The value was “significant increase in neurogenesis”.

And the “Area of doublecortin staining (mean)” value (subventricular zone of anterior lateral ventricles, daily voluntary oral treatment for two weeks, FIG. 1E)?
The value was 0.5727 mm^2.
